Data: publication PMC3750009, “Non-peptidic Cruzain Inhibitors with Trypanocidal Activity Discovered by Virtual Screening and In Vitro Assay” (PLoS Neglected Tropical Diseases, 2013)
Where two headings read alike, the source gives them in different places.

Experiments:
[1] = mammalian cell cytotoxicity, propidium iodide flow cytometry; assay type: cell-based, mice; settings: C57BL/6, mouse, primary spleen cells, mouse spleen cells, 24 h; read-out: Cytotoxic IC50
Method: (§1) Mammalian cell cytotoxicity was evaluated using the protocol previously reported. Spleen cells from C57BL/6 mice were isolated by mechanical dissociation, followed by incubation for 5 min with red blood cell lysis buffer (one part of 0.17 M Tris–HCl [pH 7.5] and nine parts of 0.16 M ammonium chloride). The cells were washed and suspended in RPMI 1640 medium (Gibco-BRL Life Technologies, Grand Island, NY) supplemented with 10% fetal bovine serum (Life Technologies Inc., Bethesda, MD) and antibiotics (Sigma). The cell suspension was cultured in flat-bottom 96-well plates at 5×10^5 cells per well with different concentrations of the tested compounds and incubated at 37°C in a humidified atmosphere of 5% CO2 for 24 h. Tween 20 at 0.5% was used as cell death positive control. To analyze cytotoxicity, cells were harvested, incubated with 10 µg mL^−1 propidium iodide (Sigma) and after 15 min data were acquired using a FACSCantoII (Becton-Dickinson Immunocytometry System Inc., San Jose, CA, USA). Data analysis was performed using FlowJo software (Ashland, OR, USA). The range of concentrations used for assaying cytotoxicity was 250, 125, 62.5, 31.25, 15.6, 7.8, 3.9, and 1.95 (µM).

[2] = system: Spleen cells from C57BL/6 mice; assay: as above; assay type: cell-based; settings: for cytotoxicity ratio (IC50(cyto)/IC50)(T. cruzi): spleen cell IC50 over T. cruzi IC50; for IC50: mouse spleen cells, 24 h, read-out: Cytotoxic IC50
Method: as §1

[3] = system: T. cruzi Tulahuen lacZ strain; assay: in vitro trypanocidal activity, infected LLC-MK2 cells, CPRG readout; assay type: cell-based, Trypanosoma cruzi; settings: for IC50: Trypanosoma cruzi
Method: In vitro trypanocidal activity of the compounds was evaluated against amastigote forms of Tulahuen strain that was genetically modified to express β-galactosidase gene from E. coli (lacZ). A monkey kidney cell strain (LLC-MK2 - ATCC) was resuspended in RPMI medium without phenol red (Gibco-BRL Life Technologies, Grand Island, NY) containing 10% fetal bovine serum (Life Technologies Inc., Bethesda, MD) and antibiotics (Sigma Chemical Co., St. Louis) at 2×10^3 cells/well and were cultured in 96-well plates for 24 h. The cells were infected with 1×10^4 trypomastigote forms of T. cruzi Tulahuen strain, and after 24 h compounds were added with different concentrations (250, 125, 62.5, 31.25, 15.6, 7.8, 3.9 and 1.95 µM). After 4 days of culture, 50 µL of PBS containing 0.5% of Triton X-100 and 100 µM Chlorophenol Red-β-D-galactoside (CPRG - Sigma) were added. Plates were incubated at 37°C for 4 h and absorbance was read at 570 nm. Benznidazole (N-benzyl-2-nitro-1-imidazolacetamide), in the same concentrations as above was used as a reference trypanocidal drug (positive control), [41].

[4] = system: Chagas disease; set-up: method as in PMID 19900395; settings: acute phase ref 5; cited from earlier work
[5] = set-up: method as in PMID 19620707; settings: pre-clinical trials ref 13; cited from earlier work
[6] = system: Chagas disease; set-up: method as in PMID 19620707; settings: mice and dogs ref 13; cited from earlier work
[7] = target: T1, cruzain (Trypanosoma cruzi, UniProt P25779); assay: cruzain enzyme assay, IC50 determination (Z-FR-MCA fluorescence); assay type: biochemical; settings: for IC50: Neq42 analogs, SAR, unit inferred, read-out: IC50, cruzain inhibition (Figure 6)
T1 construct: Recombinant cruzain enzyme was expressed and purified as previously described; made in house
T1 sequence (P25779 123-337 limits assumed): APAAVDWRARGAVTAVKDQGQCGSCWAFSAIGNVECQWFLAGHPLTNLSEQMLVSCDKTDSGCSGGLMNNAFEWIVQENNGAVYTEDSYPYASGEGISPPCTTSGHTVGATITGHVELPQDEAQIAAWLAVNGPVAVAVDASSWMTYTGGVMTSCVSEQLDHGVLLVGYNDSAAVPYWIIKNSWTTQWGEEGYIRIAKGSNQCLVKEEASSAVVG
Method: (§2) Recombinant cruzain enzyme was expressed and purified as previously described. The activity of the cruzain enzyme was measured and quantified through active-site titration with the irreversible inhibitor E-64, as described previously. Cathepsin L enzyme and all reagents used for buffer preparation were purchased from Sigma-Aldrich (St. Louis, MO, USA). The compounds screened against the enzymes were purchased from Enamine (Kiev, Ukraine), Chemdiv (San Diego, CA, USA), Asinex (Moscow, Russia) and IBScreen (Moscow, Russia) and had more than 95%purity, according to these suppliers. All experiments were carried out with freshly made solutions.
(§3) The activity of cruzain was measured in 100 mM phosphate buffer, 100 mM NaCl, 10 mM EDTA, DMSO (5.0% v/v), Triton X-100 (0.01% v/v) and 5.0 mM DTT at pH 6.3. The activity of cathepsin L was measured in 100 mM sodium acetate buffer, 100 mM NaCl, 10 mM EDTA, DMSO (5.0% v/v), Triton X-100 (0.01% v/v) and 5.0 mM DTT at pH 5.5. Both assays were carried out with 2 nM of the respective enzymes and 2 µM of the substrate Z-FR-MCA.
The reaction started by the addition of the substrate Z-FR-MCA was monitored by recording the emission at wavelength 460 nm while exciting at 360 nm. Fluorescence was measured using a Synergy HT fluorimeter microplate reader (Biotek). The percentage of inhibition was calculated according to following equation: [drawing 1] where vi and v0 are the initial velocities determined in presence and absence of inhibitors, respectively. The activity of enzyme in the presence of inhibitors was measured in 11 different concentrations in order to obtain the dose-response curves, which were analyzed using the Origin 7.0 program to determine the IC50 values. All experiments were repeated at least in duplicate.

[8] = target: T1, cruzain; assay: cruzain affinity constant (Ki) and mechanism determination, Michaelis-Menten curves; assay type: biochemical; settings: pH 6.3, 0.01% Triton X-100, inhibitor 30, 50 and 70 µM
Method: as §2
as §3, with “Both assays were carried out with 2 nM of the respective enzymes and 2 µM of the substrate Z-FR-MCA.” left out
(§4) The Michaelis-Menten curves were determined in the absence and presence of 30, 50 and 70 µM respectively of each inhibitor. […] The reaction was started and monitored as described above. The mechanisms of inhibition and K i values were determined using the kinetic module of SigmaPlot 10.0 by adjusting the velocities into the competitive, non-competitive and uncompetitive modes. […]

[9] = target: T2, cathepsin L (Homo sapiens, UniProt P07711); assay: cathepsin L affinity constant (Ki) determination, Michaelis-Menten curves; assay type: biochemical; settings: pH 5.5, 0.01% Triton X-100, inhibitor 30, 50 and 70 µM
T2 construct: Cathepsin L enzyme and all reagents used for buffer preparation were purchased from Sigma-Aldrich; purchased Sigma-Aldrich (St. Louis, MO, USA)
T2 sequence (P07711 114-333): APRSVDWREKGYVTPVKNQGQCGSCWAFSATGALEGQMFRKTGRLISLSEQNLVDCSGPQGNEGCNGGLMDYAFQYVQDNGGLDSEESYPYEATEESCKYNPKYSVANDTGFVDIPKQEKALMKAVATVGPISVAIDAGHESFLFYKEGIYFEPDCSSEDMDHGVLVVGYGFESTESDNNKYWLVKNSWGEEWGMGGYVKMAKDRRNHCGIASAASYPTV
Method: as §2
as §3, with “Both assays were carried out with 2 nM of the respective enzymes and 2 µM of the substrate Z-FR-MCA.” left out
as §4

[10] = target: T2, cathepsin L; assay: cathepsin L enzyme assay, IC50 determination (Z-FR-MCA fluorescence); assay type: biochemical; settings: pH 5.5, 0.01% Triton X-100, 2 nM enzyme, 2 µM Z-FR-MCA
Method: as §2
as §3, with “Both assays were carried out with 2 nM of the respective enzymes and 2 µM of the substrate Z-FR-MCA.” left out
The reaction started by the addition of the substrate Z-FR-MCA was monitored by recording the emission at wavelength 460 nm while exciting at 360 nm. Fluorescence was measured using a Synergy HT fluorimeter microplate reader (Biotek). The percentage of inhibition was calculated according to following equation: [drawing 1] where vi and v0 are the initial velocities determined in presence and absence of inhibitors, respectively. […]

[11] = LLC-MK2, 96 h, Tulahuen lacZ strain, 4 days of culture, read-out: Trypanocidal activity IC50
[12] = LLC-MK2, Tulahuen lacZ strain, read-out: trypanocidal pIC50 (converted)
[13] = TULAHUEN, LLC-MK2, average for compounds Neq165, Neq172, Neq176 and Neq177, read-out: trypanocidal pIC50 on average (converted)

Row | SMILES | IC50 at 24 h [1] [µM] | IC50 [3, 11] [µM] | IC50 [7] [µM] | IC50 [3, 13] [µM] | other results
1 | O=C(Cn1ccnc1[N+](=O)[O-])NCc1ccccc1 [Bz, N-benzyl-2-nitro-1-imidazolacetamide, reference compound] | > 500 | 64.3 ± 12.3 |  |  | cytotoxicity ratio (IC50(cyto)/IC50)(T. cruzi) [2]: 8; IC50 [3, 12]: 63.1 µM; successful cure [4]: up to 80%
2 | CN1CCN(C(=O)N[C@@H](Cc2ccccc2)C(=O)N[C@H](/C=C/S(=O)(=O)c2ccccc2)CCc2ccccc2)CC1 [Compound K11777] |  |  |  |  | mutagenicity [5]: non-mutagenic; pharmacokinetic profile [5]: acceptable pharmacokinetic profile; tolerability [5]: well tolerated; efficacy in models of acute and chronic Chagas disease [6]: demonstrated efficacy
3 | NC(=O)c1ccsc1NC(=O)CSc1nnc(CN2CCCCC2)n1Cc1ccccc1 [Neq42] | 50 | 10.6 ± 0.1 | 21.6 ± 5.4 |  | IC50 [2]: 49.9 ± 2.7 µM; cytotoxicity ratio (IC50(cyto)/IC50)(T. cruzi) [2]: 5; IC50 [3, 12]: 12.6 µM; preliminary trypanocidal activity ([3]; single dose of 250 µM, Tulahuen lacZ strain): active; Ki [8]: 18.5 ± 5.5 µM; Ki [9]: 35.6 ± 8.2 µM; IC50 [10]: 35.1 ± 11 µM
4 | Cc1nnc(SCC(=O)Nc2sccc2C(N)=O)n1Cc1ccccc1 [Neq165] |  | 153.4 ± 0.6 | 31.3 ± 1.2 | ~158 | 
5 | NC(=O)c1ccsc1NC(=O)COC(=O)[C@@H](Cc1ccccc1)NC(=O)OCc1ccccc1 [Neq172] | 23 | 166 ± 12.9 | 73.1 ± 4.9 | ~158 | IC50 [2]: 23.1 ± 2.7 µM
6 | NC(=O)c1ccsc1NC(=O)CSc1nnc[nH]1 [Neq176] | > 250 | 108 ± 52.2 | 68.5 ± 3 | ~158 | ligand efficiency (LE) ([7]; from cruzain potency): 0.33 kcal mol^-1 atom^-1
7 | CC(Sc1nncn1-c1ccccc1)C(=O)Nc1sccc1C(N)=O (stereo not drawn) [Neq177] | > 250 | 137 ± 14.4 | 48.9 ± 10 | ~158 | 
